Measurements from paper PMC11656708, “PHP-Family Diesterase from Novosphingobium with Broad Specificity and High Catalytic Efficiency against Organophosphate Flame-Retardant Derived Diesters” (Biochemistry, 2024).
Like-named read-outs stand apart in the source and are kept apart here.

Columns and labels:
No-PDE [1] = tested on: T1, No-PDE; test: steady-state kinetics; format: biochemical, Novosphingobium sp. EMRT-2
T1 construct: synthetic gene, recombinant, purified to homogeneity; trinuclear zinc site
From the text: steady-state kinetics on No-PDE

Sb-PDE [2] = tested on: T2, Sb-PDE; format: biochemical, Sphingobium sp. TCM1
T2 construct: synthetic gene, recombinant, purified to homogeneity; trinuclear zinc site
From the text: steady-state kinetics on Sb-PDE

Sb-PDE [3] = tested on: T2, Sb-PDE; test: UV/vis Michaelis-Menten kinetics; format: biochemical, Sphingobium sp. TCM1
From the text: UV/vis Michaelis-Menten kinetics on Sb-PDE

No-PDE [4] = tested on: T1, No-PDE; test: UV/vis Michaelis-Menten kinetics; format: biochemical, Novosphingobium sp. EMRT-2
From the text: UV/vis Michaelis-Menten kinetics on No-PDE

With `O=[N+]([O-])c1ccc(OP(=O)(O)O)cc1` [compound 11, p-nitrophenyl phosphate] as the molecule, how does the Km (No-PDE [1]) read?
The Km was 1400 µM.

What about the Km (Sb-PDE [2]) of the same molecule?
The Km was 140 µM.

What does the source list for `O=P(O)(Oc1ccccc1)Oc1ccccc1` [compound 2, diphenyl phosphate]?
Km (Sb-PDE [3]): 900 µM; Km (No-PDE [4]): 2300 µM

`O=P(O)(O)Oc1ccccc1` [compound 12, phenyl phosphate] was tested. Which Km (Sb-PDE [2]) did it give?
Its Km is 1400 µM.

With `O=[N+]([O-])c1ccc(OP(=O)(O)Oc2ccc([N+](=O)[O-])cc2)cc1` [compound 1, bis-p-nitrophenyl phosphate] as the molecule, how does the Km (Sb-PDE [3]) read?
The Km was 140 µM.

And the Km (No-PDE [4])?
The Km was 620 µM.
